Assay results as given in PubChem BioAssay AID1963864 (Molecular Pharmacology Branch, DTP, NCI, 2024).

Tested on: KRAS PDC multicell spheroid viability
Test: Anticancer human tumor 521955-158-R6-J3-PDC patient-derived pancreatic carcinoma cell line growth inhibition [KRAS2]
Details: for IC50: curve of first compound; for viability, T/C: stronger effect = lower value
Source text: Multicellular complex tumor spheroid response to RAS pathway inhibitors in combination with a targeted agents in patient-derived cell lines with oncogenic KRAS variants from multiple cancer types
A high-throughput screen of multi-cell type tumor spheroids was designed to identify active combinations of targeted small molecules and KRAS pathway inhibitors. Complex spheroids include a stromal component modeled by human endothelial cells (HUVEC) and fibroblasts modeled by human mesenchymal stem cells (MSCs). The concentration ranges selected for each drug and investigational agent were based upon clinically achievable concentrations if the clinical Cmax of the agent was known.
Compounds. The drugs and investigational agents: BI-3406 (NSC825286), BAY-293 (NSC824723), batoprotafib (TNO155; NSC825523), sotorasib (AMG 510; NSC818433), MRTX1257 (NSC819558), elimusertib (BAY 1895344; NSC800525), molibresib (GSK525762; NSC774829), temuterkib (LY3214996; NSC803410), venetoclax (NSC766270), alisertib (NSC759677), olaparib (NSC753686), talazoparib (NSC767125), erdafitinib (NSC781556), ipatasertib (NSC767898), cabozantinib (NSC761068), nintedanib (NSC756659), abemaciclib (NSC768073), docetaxel (NSC628503), trametinib (NSC758246), and sapanisertib (NSC764658) were obtained from the National Cancer Institute (NCI) Developmental Therapeutics Program Chemical Repository. The FDA-approved anticancer drug set is available from the Developmental Therapeutics Program. […] The stock solutions were prepared in dimethyl sulfoxide (DMSO, Sigma-Aldrich, St. Louis, MO, cat. D2650) at 800-fold the tested concentration and stored at -70 degrees C prior to their use. All drugs and investigational agents were tested over a range starting from a high concentration at or near the clinical Cmax and decreasing in half-log increments. If the clinical Cmax for an agent had not been determined, the highest concentration tested was 10 microM.
Cell Culture. All cells were maintained in an incubator at 37 degrees C and 5% CO2 with 95% humidity. The PDC lines were cultured according to standard operating procedures established by the NCI PDMR (https://pdmr.cancer.gov/sops/default.htm). Briefly, all PDCs were thawed and cultured in Matrigel-coated flasks prepared with a working solution of 1X Ham's F-12 nutrient mix, without supplementation (Invitrogen, Waltham, MA, cat. 11765054), 100 U/mL penicillin-streptomycin (Invitrogen, cat. 15140122), and 2.5% Matrigel (Corning Inc., Corning, NY, cat. 354248) for the first three passages. All PDCs were cultured in complete DMEM/F-12 media containing advanced DMEM/F-12 (Invitrogen, cat. 12634028), 4.9% defined fetal bovine serum, heat inactivated (HyClone Laboratories Inc., Logan, UT, cat. SH30070.03HI), 389 ng/mL hydrocortisone (Sigma-Aldrich, cat. H4001), 9.7 ng/mL human EGF recombinant protein (Invitrogen, cat. PHG0313), 23.4 microg/mL adenine (Sigma-Aldrich, cat. A2786), 97.3 U/mL penicillin-streptomycin (Invitrogen, cat. 15140122), 1.9 mM L-glutamine (Invitrogen, cat. 25030081), and 9.7 microM Y-27632 dihydrochloride (Tocris Bioscience, Bristol, United Kingdom, cat. 1254). The PDCs were cultured in complete DMEM/F12 media without 9.7 microM Y-27632 dihydrochloride for at least two passages prior to the screen. The established cell line HOP-62 was cultured in RPMI 1640 medium, HEPES (Invitrogen, cat. 22400105) with 10% defined fetal bovine serum (HyClone Laboratories Inc., cat. SH30070.03) and 2 mM L-glutamine (Invitrogen, cat. 25030081). The pooled donor HUVEC were cultured in endothelial cell growth medium 2 (PromoCell, Heidelberg, Germany, cat. C-22011) and the hMSC were cultured in mesenchymal stem cell growth medium 2 (PromoCell, cat. C-28009). For all experiments, HUVEC and hMSC were used at passages </=5, while the malignant cell lines were used at passages </=15. […]

[1] = second compound 0.1 µM, first compound 0.0316 µM
[2] = second compound 0.316 µM, first compound 0.0316 µM
[3] = second compound 1 µM, first compound 0.0316 µM
[4] = second compound 3.16 µM, first compound 0.0316 µM
[5] = second compound 10 µM, first compound 0.0316 µM
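Further: drug exposure lasted seven days.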
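Wherever viability, T/C is given: 100% = DMSO vehicle wells and lower means fewer viable cells.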

`CC(=O)Nc1cccc(-n2c(=O)n(C3CC3)c(=O)c3c(Nc4ccc(I)cc4F)n(C)c(=O)c(C)c32)c1` + C=CC(=O)N1CCN(c2nc(=O)n(-c3c(C)ccnc3C(C)C)c3nc(-c4c(O)cccc4F)c(F)cc23)C(C)C1 gave an IC50 (second compound 0.1 µM) of 25.5 nM, an IC50 (second compound 0.316 µM) of over 31.6 nM and an IC50 (second compound 1 µM) of over 31.6 nM. It also gave an IC50 (second compound 3.16 µM) of over 31.6 nM, an IC50 (second compound 10 µM) of 8.58 nM and a viability, T/C (second compound 0.1 µM, first compound 0.0001 µM) of 97.7%. It also gave a viability, T/C (second compound 0.1 µM, first compound 0.000316 µM) of 96.3%, a viability, T/C (second compound 0.1 µM, first compound 0.001 µM) of 92% and a viability, T/C (second compound 0.1 µM, first compound 0.00316 µM) of 88.1%. It also gave a viability, T/C (second compound 0.1 µM, first compound 0.01 µM) of 69.1%, a viability, T/C [1] of 45.2% and a viability, T/C (second compound 0.316 µM, first compound 0.0001 µM) of 107%. It also gave a viability, T/C (second compound 0.316 µM, first compound 0.000316 µM) of 99.1%, a viability, T/C (second compound 0.316 µM, first compound 0.001 µM) of 95.4% and a viability, T/C (second compound 0.316 µM, first compound 0.00316 µM) of 83.7%. For the same molecule, the viability, T/C (second compound 0.316 µM, first compound 0.01 µM) was 72.8%, the viability, T/C [2] was 50.5% and the viability, T/C (second compound 1 µM, first compound 0.0001 µM) was 102%. It also gave a viability, T/C (second compound 1 µM, first compound 0.000316 µM) of 99.9%, a viability, T/C (second compound 1 µM, first compound 0.001 µM) of 98.5% and a viability, T/C (second compound 1 µM, first compound 0.00316 µM) of 88.1%. The viability, T/C (second compound 1 µM, first compound 0.01 µM) was 83.4%, the viability, T/C [3] was 51% and the viability, T/C (second compound 3.16 µM, first compound 0.0001 µM) was 84.4%. For the same molecule, the viability, T/C (second compound 3.16 µM, first compound 0.000316 µM) was 92.2%, the viability, T/C (second compound 3.16 µM, first compound 0.001 µM) was 91.9% and the viability, T/C (second compound 3.16 µM, first compound 0.00316 µM) was 90.7%. The viability, T/C (second compound 3.16 µM, first compound 0.01 µM) was 71.6%, the viability, T/C [4] was 52.2% and the viability, T/C (second compound 10 µM, first compound 0.0001 µM) was 64.4%. The viability, T/C (second compound 10 µM, first compound 0.000316 µM) was 69.8%, the viability, T/C (second compound 10 µM, first compound 0.001 µM) was 58.4% and the viability, T/C (second compound 10 µM, first compound 0.00316 µM) was 58.4%. It also gave a viability, T/C (second compound 10 µM, first compound 0.01 µM) of 46.3% and a viability, T/C [5] of 41%.
`COc1cc(Nc2ncc3c(n2)-c2ccc(Cl)cc2C(c2c(F)cccc2OC)=NC3)ccc1C(=O)O` + C=CC(=O)N1CCN(c2nc(=O)n(-c3c(C)ccnc3C(C)C)c3nc(-c4c(O)cccc4F)c(F)cc23)C(C)C1 gave an IC50 (second compound 0.1 µM) of over 10000 nM, an IC50 (second compound 0.316 µM) of over 10000 nM and an IC50 (second compound 1 µM) of over 10000 nM. For the same molecule, the IC50 (second compound 3.16 µM) was over 10000 nM, the IC50 (second compound 10 µM) was over 10000 nM and the viability, T/C [1] was 109%. The viability, T/C (second compound 0.1 µM, first compound 0.1 µM) was 103%, the viability, T/C (second compound 0.1 µM, first compound 0.316 µM) was 102% and the viability, T/C (second compound 0.1 µM, first compound 1 µM) was 92.6%. It also gave a viability, T/C (second compound 0.1 µM, first compound 3.16 µM) of 89.1%, a viability, T/C (second compound 0.1 µM, first compound 10 µM) of 89.8% and a viability, T/C [2] of 100%. The viability, T/C (second compound 0.316 µM, first compound 0.1 µM) was 108%, the viability, T/C (second compound 0.316 µM, first compound 0.316 µM) was 99.4% and the viability, T/C (second compound 0.316 µM, first compound 1 µM) was 79.6%. For the same molecule, the viability, T/C (second compound 0.316 µM, first compound 3.16 µM) was 82.9%, the viability, T/C (second compound 0.316 µM, first compound 10 µM) was 82.1% and the viability, T/C [3] was 93.2%. For the same molecule, the viability, T/C (second compound 1 µM, first compound 0.1 µM) was 103%, the viability, T/C (second compound 1 µM, first compound 0.316 µM) was 94.7% and the viability, T/C (second compound 1 µM, first compound 1 µM) was 95.6%. The viability, T/C (second compound 1 µM, first compound 3.16 µM) was 86.3%, the viability, T/C (second compound 1 µM, first compound 10 µM) was 80.5% and the viability, T/C [4] was 91.3%. It also gave a viability, T/C (second compound 3.16 µM, first compound 0.1 µM) of 89.9%, a viability, T/C (second compound 3.16 µM, first compound 0.316 µM) of 77.4% and a viability, T/C (second compound 3.16 µM, first compound 1 µM) of 78.6%. The viability, T/C (second compound 3.16 µM, first compound 3.16 µM) was 84.6%, the viability, T/C (second compound 3.16 µM, first compound 10 µM) was 79% and the viability, T/C [5] was 71.5%. It also gave a viability, T/C (second compound 10 µM, first compound 0.1 µM) of 77.9%, a viability, T/C (second compound 10 µM, first compound 0.316 µM) of 70.6% and a viability, T/C (second compound 10 µM, first compound 1 µM) of 62.4%. The viability, T/C (second compound 10 µM, first compound 3.16 µM) was 54.2% and the viability, T/C (second compound 10 µM, first compound 10 µM) was 58.3%.
